Measured values published in ChEMBL document CHEMBL5154881, “Discovery of First-in-Class TAK1-MKK3 Protein-Protein Interaction (PPI) Inhibitor (R)-STU104 for the Treatment of Ulcerative Colitis through Modulating TNF-α Production” (J Med Chem, 2022).
Activity calls are given as the source filed them. The rule behind the calls is not given here.

Assays:
[1] = Mutagenicity in Salmonella typhimurium by Ames test; type: toxicity; conditions: salmonella enterica subsp. enterica serovar typhimurium
[2] = AUC (0 to t) in 12 hr starved C57 mouse at 5 mg/kg, iv measured for 0.083 to 24 hrs post-dose by LC-MS-MS analysis; type: ADME, organism-based; design: time lower 0.083 hrs, dose 5 mg/kg, time upper 24 hrs, route iv; conditions: in vivo
[3] = Half life in 12 hr starved C57 mouse at 30 mg/kg, po measured for 0.083 to 24 hrs post-dose by LC-MS-MS analysis; type: ADME, organism-based; conditions: in vivo, time 0.083-24 hrs
[4] = Apparent clearance during terminal phase in 12 hr starved C57 mouse at 30 mg/kg, po measured for 0.083 to 24 hrs post-dose by LC-MS-MS analysis; type: ADME, organism-based; conditions: in vivo, time 0.083-24 hrs
Mus musculus [5] = experiment: Anti-ulcerative colitis activity against DSS-induced ulcerative colitis C57BL/6 mouse model assessed as body weight recovery rate at 10 mg/kg, IG via gavage administered for 7 days and measured everyday relative to control; type: functional; conditions: time 7 day
Mus musculus [6] = experiment: Anti-ulcerative colitis activity in DSS-induced C57BL/6 mouse ulcerative colitis model assessed as colon length recovery ratio at 3 mg/kg, IG via gavage measured after 7 days relative to control; type: functional; conditions: time 7 day
Mus musculus [7] = experiment: Antiinflammatory activity against DSS-induced C57BL/6 mouse model of acute ulcerative colitis assessed as inhibition ratio of TNF-alpha protein expression at 3 mg/kg, IG via gavage measured after 7 days by ELISA relative to control; type: functional; design: scale not given: the % may be the effect or the level left; conditions: time 7 day
Mus musculus [8] = experiment: Antiinflammatory activity against DSS-induced C57BL/6 mouse model of acute ulcerative colitis assessed as inhibition ratio of IL-1beta protein expression at 3 mg/kg, IG via gavage measured after 7 days by ELISA relative to control; type: functional; design: scale not given: the % may be the effect or the level left; conditions: time 7 day
Mus musculus [9] = experiment: Antiinflammatory activity against DSS-induced C57BL/6 mouse model of acute ulcerative colitis assessed as inhibition ratio of IL-6 mRNA expression in colon tissue at 1 mg/kg, IG via gavage measured after 7 days by RT-qPCR analysis relative to control; type: functional; design: scale not given: the % may be the effect or the level left; conditions: time 7 day
Mus musculus [10] = experiment: Antiinflammatory activity against DSS-induced C57BL/6 mouse model of acute ulcerative colitis assessed as inhibition ratio of IL-1beta mRNA expression in colon tissue at 3 mg/kg, IG via gavage measured after 7 days by RT-qPCR analysis relative to control; type: functional; design: scale not given: the % may be the effect or the level left; conditions: time 7 day
Mus musculus [11] = experiment: Antiinflammatory activity against DSS-induced C57BL/6 mouse model of acute ulcerative colitis assessed as inhibition ratio of IL-23 mRNA expression in colon tissue at 1 mg/kg, IG via gavage measured after 7 days by RT-qPCR analysis relative to control; type: functional; design: scale not given: the % may be the effect or the level left; conditions: time 7 day
Mus musculus [12] = experiment: Anti-ulcerative colitis activity in IL-10-/- C57BL/6 mouse model of ulcerative colitis assessed as colon length recovery ratio at 1 mg/kg, IG via gavage for 8 weeks relative to control; type: functional
Mus musculus [13] = experiment: Antiinflammatory activity against IL-10-/- C57BL/6 mouse model of ulcerative colitis assessed as inhibition ratio of TNF-alpha protein expression at 3 mg/kg, IG via gavage and measured after 8 weeks by ELISA relative to control; type: functional; design: scale not given: the % may be the effect or the level left
Mus musculus [14] = experiment: Antiinflammatory activity against IL-10-/- C57BL/6 mouse model of ulcerative colitis assessed as inhibition ratio of IL-1beta protein expression at 1 mg/kg, IG via gavage and measured after 8 weeks by ELISA relative to control; type: functional; design: scale not given: the % may be the effect or the level left
Mus musculus [15] = experiment: Antiinflammatory activity against IL-10-/- C57BL/6 mouse model of ulcerative colitis assessed as inhibition ratio of IL-1beta protein expression at 10 mg/kg, IG via gavage and measured after 8 weeks by ELISA relative to control; type: functional; design: scale not given: the % may be the effect or the level left
Mus musculus [16] = experiment: Antiinflammatory activity against IL-10-/- C57BL/6 mouse model of ulcerative colitis assessed as inhibition ratio of IL-6 protein expression at 10 mg/kg, IG via gavage and measured after 8 weeks by ELISA relative to control; type: functional; design: scale not given: the % may be the effect or the level left
Mus musculus [17] = experiment: Antiinflammatory activity against IL-10-/- C57BL/6 mouse model of ulcerative colitis assessed as inhibition ratio of IL-1beta mRNA expression in colon tissue at 1 mg/kg, IG via gavage and measured after 8 weeks by RT-qPCR analysis relative to control; type: functional; design: scale not given: the % may be the effect or the level left
Mus musculus [18] = experiment: Antiinflammatory activity against IL-10-/- C57BL/6 mouse model of ulcerative colitis assessed as inhibition ratio of IL-23 mRNA expression in colon tissue at 1 mg/kg, IG via gavage and measured after 8 weeks by RT-qPCR analysis relative to control; type: functional; design: scale not given: the % may be the effect or the level left
Mus musculus [19] = experiment: Inhibition of MKK3-p38 MAPK-elF4E signaling pathway in C57BL/6 mouse model of acute ulcerative colitis assessed as decrease in DSS-induced MK2 phosphorylation in colon tissue administered intragastrically via gavage measured after 7 days by Western blot analysis; conditions: dose 1-50 mg/kg, time 7.0 day, DDE = dose-dependent effect
Mus musculus [20] = experiment: Inhibition of MKK3-p38 MAPK-elF4E signaling pathway in C57BL/6 mouse model of acute ulcerative colitis assessed as decrease in DSS-induced elF4E phosphorylation in colon tissue administered intragastrically via gavage measured after 7 days by Western blot analysis; conditions: dose 1-50 mg/kg, time 7.0 day, DDE = dose-dependent effect
[21] = molecular target: T1, Dual specificity mitogen-activated protein kinase kinase 3 (Homo sapiens, UniProt P46734); experiment: Binding affinity to CM5 chip immobilized human MKK3 (20 to 347 residues) expressed in Escherichia coli BL21 (DE3) assessed as dissociation constants, KD by surface plasmon resonance analysis
T1 sequence (P46734 whole entry): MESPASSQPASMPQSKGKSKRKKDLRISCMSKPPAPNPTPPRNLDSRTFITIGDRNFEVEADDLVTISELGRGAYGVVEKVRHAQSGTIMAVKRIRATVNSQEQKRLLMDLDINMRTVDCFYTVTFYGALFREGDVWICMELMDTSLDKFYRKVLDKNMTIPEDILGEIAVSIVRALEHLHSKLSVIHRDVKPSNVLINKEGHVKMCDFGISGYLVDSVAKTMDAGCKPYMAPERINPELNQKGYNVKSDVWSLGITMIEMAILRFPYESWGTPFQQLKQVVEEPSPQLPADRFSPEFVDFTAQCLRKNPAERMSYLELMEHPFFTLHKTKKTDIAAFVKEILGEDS

[22] = Toxicity in C57 mouse assessed as heart damage at 50 to 500 mg/kg, po administered daily for 14 days; type: organism-based; conditions: in vivo, 336 h, dose 50-500 mg/kg, time 14 day
Mus musculus [23] = experiment: Antiinflammatory activity against IL-10-/- C57BL/6 mouse model of acute ulcerative colitis assessed as decrease in serum TNF-alpha levels administered intragastrically via gavage measured after 8 weeks by ELISA; type: functional, organism-based; conditions: dose 3-10 mg/kg, route ig, DDE = dose-dependent effect
Mus musculus [24] = experiment: Antiinflammatory activity against IL-10-/- C57BL/6 mouse model of acute ulcerative colitis assessed as decrease in serum IL-6 levels administered intragastrically via gavage measured after 8 weeks by ELISA; type: functional, organism-based; conditions: dose 3-10 mg/kg, route ig, DDE = dose-dependent effect
[25] = molecular target: T2, Dual specificity mitogen-activated protein kinase kinase 3 (Homo sapiens) (UniProt P46734); experiment: Binding affinity to CM5 chip immobilized human MKK3 (20 to 347 residues) expressed in Escherichia coli BL21 (DE3) assessed as association constant, Ka by surface plasmon resonance analysis
T2 sequence (whole entry): T1 sequence (P46734 whole entry)

RAW264.7 = experiment: Inhibition of TAK1-MKK3 protein-protein interaction in LPS-treated mouse RAW264.7 cells assessed as reduction in TAK1 levels at 3.13 to 12.5 umol/L incubated for 30 mins by immunoprecipitation method; type: cell-based; conditions: dose 3.13-12.5 µmol/L

Q: With `COc1ccc([C@H]2CC(=O)c3cc(OC)cc(OC)c32)cc1` as the compound, how does the Activity [1] read?
A: Non-Toxic

Q: And the AUC(0-t) [2]?
A: 7250 ng·h/mL

Q: And the half-life [3]?
A: 8.67 h

Q: And the CLz/F [4]?
A: 4.83 mL/min/kg

Q: And the Activity (Mus musculus [5])?
A: 52.4%

Q: What about the Activity (Mus musculus [6]) of the same compound?
A: 51.5%

Q: And the Activity (Mus musculus [7])?
A: 55.9%

Q: What about the Activity (Mus musculus [8]) of the same compound?
A: 60.8%

Q: And the Activity (Mus musculus [9])?
A: 32.8%

Q: And the Activity (Mus musculus [10])?
A: 87.2%

Q: What about the Activity (Mus musculus [11]) of the same compound?
A: 71.7%

Q: And the Activity (Mus musculus [12])?
A: 17.7%

Q: What about the Activity (Mus musculus [13]) of the same compound?
A: 60.3%

Q: And the Activity (Mus musculus [14])?
A: 40.1%

Q: And the Activity (Mus musculus [15])?
A: 51.8%

Q: And the Activity (Mus musculus [16])?
A: 57.6%

Q: What about the Activity (Mus musculus [17]) of the same compound?
A: 22.8%

Q: And the Activity (Mus musculus [18])?
A: 31%

Q: And the inhibition (Mus musculus [19])?
A: Dde

Q: And the inhibition (Mus musculus [20])?
A: Dde

Q: And the Kd [21]?
A: 71 nM

Q: What about the Activity [22] of the same compound?
A: Non-Toxic

Q: What about the Activity (Mus musculus [23]) of the same compound?
A: Dde

Q: And the Activity (Mus musculus [24])?
A: Dde

Q: And the Ka [25]?
A: 5.08 10^4/Ms

Q: What about the inhibition (RAW264.7) of the same compound?
A: Active
